Legend:
[1] = tested on: CEM-SS and MT-4 cells; assay: Cytotoxicity of preparations, threpane blue vitality of cells; assay type: cell-based, human; settings: Table 1; comparison preparation, no ratio
Experimental: The antiviral activity of the preparation was tested according to the method recommended by WHPO for these purposes. CEM-SS and MT-4 reinoculated human cell lines were used. The cells were cultivated in the concentration of (0.03-0.05)*10^6 cells per 1 ml of RPMI 1640 medium with 10% calf fetal serum, 300 mg/ml of L-glutamine, 100 mcg/ml of gentamicin and grown in the form of a suspension. The vitality of cells was tested by dyeing them with 0.4% solution of threpane blue dye stuff. HIV-IVS and HIV-1 HTLV/IIIB strains were used as the virus sources.

[2] = tested on: white mice; assay: in vivo; settings: for surviving mice / infected mice: Table 3
Experimental: (§1) The studies on toxicity of AC-1 and AC-4 and of aziodothymidine were conducted on non-linear white mice weighing 6 to 7 grams, making use of different concentrations of preparations per kg of weight of the animal in the volume of 0.2 ml in hypodermic, intranasal and intraabdominal injections and 0.03 ml in intracerebral injections. The animals were kept under observation for 2 weeks and then LD50 was calculated using Curber method. The lethal dose of the preparation which has caused death of 50% of the animals was considered an LD50 dose. The preparation was used as a sterile solution was a concentration of 0.05%.
(§2) The animals were kept under observation for 2 weeks and then LD50 was calculated using Curber method. The lethal dose of the preparation which caused death of 50% of the animal was considered the LD50 dose.

[3] = in vivo; settings: mouse, in vivo
Experimental: as §1, §2

[4] = tested on: HIV-1 (HTLV-IIIB); assay: Anti-virus activity of AC-series preparations on infected cells (syncitia, p24 antigen); assay type: cell-based
Experimental: Antiviral activity of these preparations toward HIV-1 was studied using as the model, cellular cultures infected with HIV-1.
The testing of anti-virus activity was conducted using two types of interwoven cellar lines sensitive to infecting by AIDS-virus--the MT-4 cells and Yurkat tat III cells. The cells were harvested in suspension form in a PPMI 1640 medium containing 15% of fetal serum with exposure to the atmosphere characterized by 5% CO2 content, 98% humidity level and 37% C. temperature level. The cells were infected by the HTLV-IIIB culture of AIDS-1 virus in accordance with WHO recommendations for conducting scientific researches on testing pharmaceutical preparations. The methods used for determining anti-virus activity of the tested preparations are recommended for similar purposes by the WHO Reference Laboratory (Belgium) headed by Professor de Clerk who is an internationally recognized leading expert in synthesis and screening chemical preparations for AIDs treatment (I. Antimicrob. Chemoter., 1989, No. 23, Suppl. A 35-46). […]
(§3) The cells were incubated for 6 days under similar conditions and thereafter their viability was determined as well as formation of virus-induced syncytia and virus antigen (p24) using immunofermental analysis. […] The viable cells were counted using thripane blue dye-stuff in the Goryayev chamber.

[5] = tested on: MT-4 cells and Yurkat tat III cells; assay: Cell viability / toxic effect on cells, AC-series preparations; assay type: cell-based, human
Experimental: The testing of anti-virus activity was conducted using two types of interwoven cellar lines sensitive to infecting by AIDS-virus--the MT-4 cells and Yurkat tat III cells. The cells were harvested in suspension form in a PPMI 1640 medium containing 15% of fetal serum with exposure to the atmosphere characterized by 5% CO2 content, 98% humidity level and 37% C. temperature level. The cells were infected by the HTLV-IIIB culture of AIDS-1 virus in accordance with WHO recommendations for conducting scientific researches on testing pharmaceutical preparations. The methods used for determining anti-virus activity of the tested preparations are recommended for similar purposes by the WHO Reference Laboratory (Belgium) headed by Professor de Clerk who is an internationally recognized leading expert in synthesis and screening chemical preparations for AIDs treatment (I. Antimicrob. Chemoter., 1989, No. 23, Suppl. A 35-46). The work was done at the Virology Institute of the U.S.S.R. Academy of Medical Sciences on MT-4 human lymphoid cells and on Yurkat tat III cells as indicated above.
as §3

[6] = tested on: HIV (HIV-IVS and HIV-1 HTLV/IIIB strains); assay: HIV suppression in vitro (syncitia, viral antigen IFA), CEM-SS and MT-4 cells; assay type: cell-based; settings: Table 1; comparison preparation, no ratio
Experimental: Complexes of DNA-Na with zinc, cobalt, nickel and iron were used for HIV suppression in in vitro systems with various concentrations of the components in the complexes. AZT manufactured by "Wellcome" Company was used for comparison purposes. The antiviral activity of the preparation was tested according to the method recommended by WHPO for these purposes. CEM-SS and MT-4 reinoculated human cell lines were used. The cells were cultivated in the concentration of (0.03-0.05)*10^6 cells per 1 ml of RPMI 1640 medium with 10% calf fetal serum, […] of L-glutamine, 100 mcg/ml of gentamicin and grown in the form of a suspension. The vitality of cells was tested by dyeing them with 0.4% solution of threpane blue dye stuff. HIV-IVS and HIV-1 HTLV/IIIB strains were used as the virus sources.
The cell suspension was placed into 24 well panels, processed by various doses of preparations and then infected by HIV. The infection multiplicity was 0.01 TCD50 per cell. After that, the cultures were incubated at 37° C. in a 5% CO2 atmosphere and 98% humidity for 5-7 days up to the moment of defining the cytopathic effect of the virus upon the cell culture.
Immunophermentative analysis was used to define formation of viral antigen.

[7] = tested on: mice; settings: 10 mg/kg injected intercerebrally; cited from earlier work
[8] = tested on: normal cells; settings: cited from earlier work

Cc1cn([C@H]2C[C@H](N=[N+]=[N-])[C@@H](CO)O2)c(=O)[nH]c1=O [AZT, azidothymidine]
cytotoxicity: quantity of cells in ml of cultural liquid [1]: 0.61 × 10^8
surviving mice / infected mice ([2]; hypoderm., 5 mg/kg): 6/6
surviving mice / infected mice ([2]; hypoderm., 10 mg/kg): 6/6
surviving mice / infected mice ([2]; hypoderm., 20 mg/kg): 6/6
surviving mice / infected mice ([2]; hypoderm., 35 mg/kg): 6/6
surviving mice / infected mice ([2]; hypoderm., 50 mg/kg): 6/6
surviving mice / infected mice ([2]; hypoderm., 75 mg/kg): 6/6
surviving mice / infected mice ([2]; in/abdom., 5 mg/kg): 6/6
surviving mice / infected mice ([2]; in/abdom., 10 mg/kg): 6/6
surviving mice / infected mice ([2]; in/abdom., 20 mg/kg): 6/6
surviving mice / infected mice ([2]; in/abdom., 35 mg/kg): 6/6
surviving mice / infected mice ([2]; in/abdom., 50 mg/kg): 6/6
surviving mice / infected mice ([2]; in/abdom., 75 mg/kg): 6/6
surviving mice / infected mice ([2]; in/cerebr., 5 mg/kg): 6/6
surviving mice / infected mice ([2]; in/cerebr., 10 mg/kg): 6/6
surviving mice / infected mice ([2]; in/cerebr., 20 mg/kg): 6/6
surviving mice / infected mice ([2]; in/cerebr., 35 mg/kg): 6/6
surviving mice / infected mice ([2]; in/cerebr., 50 mg/kg): 6/6
surviving mice / infected mice ([2]; in/cerebr., 75 mg/kg): 6/6
surviving mice / infected mice ([2]; in/nasal, 5 mg/kg): 6/6
surviving mice / infected mice ([2]; in/nasal, 10 mg/kg): 6/6
surviving mice / infected mice ([2]; in/nasal, 20 mg/kg): 6/6
surviving mice / infected mice ([2]; in/nasal, 35 mg/kg): 6/6
surviving mice / infected mice ([2]; in/nasal, 50 mg/kg): 6/6
surviving mice / infected mice ([2]; in/nasal, 75 mg/kg): 6/6
toxicity ([2]; all injection methods, 5 to 50 mg/kg, except intracerebral 10 to 50 mg/kg): non-toxic
LD50 at 336 h [3]: 10 mg/kg
mortality at 336 h ([3]; 10 mg/kg): 50%
antigen (p24) content ([4]; 1.0 mcm/ml, virus control 2.0 ng/ml): 1 ng/mL
immunofermental activity ([4]; Table 2, virus antigen (p24), 270 mkg/ml, 6th day): 0.1 ng/mL
viability at 270 µg/mL ([5]; Homo sapiens, MT4, 144 h): 96%
toxicity on the cell level ([5]; all the above biologically active concentrations): nontoxic
IFA optical density [6]: 0.091
IFA viral antigen [6]: 0.1 ng/mL
quantity of syncitia, % from the control virus [6]: 8%
death of animals [7]: 50%
normal cells killed ([8]; optimal dose): about 30%
CC50 ([8]; read-out: LD50 for cells, cells): ≤ 100 mM

Reference: patent US5547684A, “Cosmetic composition containing a DNA-sodium salt and methods of making and using the same” (priority 1993, dated 1996)
